17 molecules from ChEMBL document CHEMBL4715839, “Structure-activity relationships for binding of 4-substituted triazole-phenols to macrophage migration inhibitory factor (MIF)” (Eur J Med Chem, 2020) can be followed below.

Data set [1] can be described thus: Solubility of compound in pH 7.4 PBS buffer by shake-flask method. Format: physicochemical.
A short description of data set [2]: Solubility of compound at >=50 uM. It counts as physicochemical.
Data set [3] has as its target T1, Macrophage migration inhibitory factor (Homo sapiens, UniProt P14174).
T1 sequence (P14174 whole entry): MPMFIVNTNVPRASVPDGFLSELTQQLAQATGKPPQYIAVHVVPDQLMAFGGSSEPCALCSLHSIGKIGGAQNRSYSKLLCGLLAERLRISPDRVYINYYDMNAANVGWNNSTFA
Briefly: Inhibition of C-terminal His-tagged recombinant human MIF tautomerase activity expressed in Escherichia coli BL21 using 4-hydroxyphenyl pyruvic acid as substrate preincubated for 15 mins followed by substrate addition and measured for 10 mins in presence of 0.5 mM EDTA by UV absorbance based Cheng-Prusoff equation analysis.

The target in data set [4] is T1, Macrophage migration inhibitory factor. Briefly: Inhibition of C-terminal His-tagged recombinant human MIF tautomerase activity expressed in Escherichia coli BL21 using 4-hydroxyphenyl pyruvic acid as substrate preincubated for 15 mins followed by substrate addition and measured for 10 mins in presence of 0.5 mM EDTA by UV absorbance analysis.
For data set [5] the target is unchanged. Kind of data set: Binding affinity to RED-Tris-NTA-labelled C-terminal His-tagged recombinant human MIF tautomerase activity expressed in Escherichia coli BL21 by microscale thermophoresis assay.
Data set [6] has the same target. Briefly: Inhibition of recombinant human MIF tautomerase activity expressed in Escherichia coli using 4-hydroxyphenyl pyruvic acid as substrate preincubated for 30 mins followed by substrate addition and measured for 175 secs.
For data set [7] the target is unchanged. Kind of data set: Inhibition of C-terminal His-tagged recombinant human MIF tautomerase activity expressed in Escherichia coli BL21 using 4-hydroxyphenyl pyruvic acid as substrate preincubated for 15 mins followed by substrate addition and measured for 10 mins in absence of EDTA by UV absorbance based Cheng-Prusoff equation analysis.

The molecule `Oc1ccc(-n2cc(-c3ccc4ccccc4n3)nn2)cc1` gave a solubility (thermodynamic) in data set [1] of 2.2 µg/mL.

As for `O=C(NCc1cn(-c2ccc(O)c(F)c2)nn1)c1cc2cc(Cl)ccc2[nH]1`, the solubility entry in data set [2] is on record as “Insoluble”. Besides, in data set [1], the solubility (thermodynamic) came out at 28 µM. In addition, the inhibition constant (Ki) in data set [3] stood at 0.96 µM.

Take `O=C(NCc1cn(-c2ccc(O)cc2)nn1)c1ccc[nH]1`: the inhibitory constant (Ki) in data set [3] amounted to 30 µM. In addition, the IC50 in data set [4] amounted to 43 µM.

On to `O=C(NCc1cn(-c2ccc(O)cc2)nn1)c1ccc(F)cc1`, for which the Ki in data set [3] was determined as 36 µM. In addition, the half-inhibitory concentration (IC50) in data set [4] was found to be 53 µM.

Regarding `O=C(Cc1cc2ccccc2[nH]1)NCc1cn(-c2ccc(O)cc2)nn1`, in data set [3], the Ki turned out to be 43 µM. In addition, in data set [4], the IC50 was 62 µM.

`O=C(NCc1cn(-c2ccc(O)c(F)c2)nn1)c1cc2ccccc2[nH]1` showed a solubility (thermodynamic) in data set [1] of 41.4 µM. The Kd in data set [5] came to 3.63 µM. Besides, the inhibition constant Ki in data set [3] came to 3.3 µM. Also, the 50% inhibitory concentration (IC50) in data set [4] came out at 4.8 µM.

With `C#CCCCCc1cn(-c2ccc(O)cc2)nn1`, the Ki in data set [3] was 6.5 µM. Also, the half-maximal inhibitory concentration (IC50) in data set [4] turned out to be 9.5 µM.

On to `Oc1ccc(-n2cc(-c3ccccn3)nn2)cc1`, for which the inhibition constant Ki in data set [6] is 8.8 µM; in data set [3], 5 µM; in data set [7], 2.9 µM. The half-maximal inhibitory concentration (IC50) in data set [4] stood at 7.2 µM.

For the molecule `COC(=O)CCCc1cn(-c2ccc(O)cc2)nn1`, in data set [3], the inhibition constant (Ki) came to 23 µM. Further, in data set [4], the IC50 was found to be 33 µM.

Regarding `CCCCCc1cn(-c2ccc(O)cc2)nn1`, in data set [3], the Ki came out at 6.9 µM. Further, in data set [4], the IC50 worked out at 10 µM.

On to `Oc1ccc(-n2cc(C3CCCCC3)nn2)cc1`, for which the Ki in data set [3] was 17 µM. For the same molecule, the half-inhibitory concentration (IC50) in data set [4] was 26 µM.

As to `O=C(NCc1cn(-c2ccc(O)cc2)nn1)c1ccc(Br)o1`, the inhibition constant (Ki) in data set [3] stood at 26 µM. The half-inhibitory concentration (IC50) in data set [4] amounted to 38 µM.

On to `O=C(NCc1cn(-c2ccc(O)cc2)nn1)c1cccs1`, for which the Ki in data set [3] came to 28 µM. In addition, the IC50 in data set [4] amounted to 41 µM.

Consider `O=C(NCc1cn(-c2ccc(O)cc2)nn1)c1cc2ccccc2[nH]1`, for which the Ki in data set [3] stood at 6.9 µM. In addition, in data set [4], the IC50 was found to be 10 µM.

For the molecule `O=C(NCc1cn(-c2ccc(O)cc2)nn1)c1ccccc1`, the Ki in data set [3] is 23 µM. In addition, the IC50 in data set [4] amounted to 33 µM.

Consider `O=C(CCc1cn(-c2ccc(O)cc2)nn1)Nc1ccccc1`, for which the Ki in data set [3] is 32 µM. Moreover, the half-inhibitory concentration (IC50) in data set [4] came out at 47 µM.

As for `Cc1ccc(C(=O)NCc2cn(-c3ccc(O)cc3)nn2)s1`, the inhibitory constant (Ki) in data set [3] amounted to 19 µM. In data set [4], the IC50 stood at 28 µM.

The term solubility (thermodynamic) denotes solubility found after equilibrating the solid with the medium. What is called Ki is a dissociation constant, usually derived from enzyme kinetics or from competition with a known ligand. Broadly, the IC50 is the concentration that gives 50% inhibition. Broadly, the Kd is the free concentration of one partner at which half of the binding sites on the other are occupied at equilibrium, for simple one-to-one binding.
